This is an account of results in patent US20260176320A1, “MODULATORS OF G-PROTEIN COUPLED RECEPTORS” (priority 2018, published 2026).

Where two headings read alike, the source gives them in different places. Numbered stars: 1 amine (or outer) side, 2 acyl side, 3 side chain; on linkers, the order of the positions; unused ones are H or OH. Square brackets hold non-standard residues; d marks the D form. Side chains are listed from the residue outwards. Peptide text beside a SMILES is read from it. * marks the point of attachment. γGlu = O=C(O)[C@H](CCC(=O)[*:2])N[*:1]; Palmitoyl = CCCCCCCCCCCCCCCC(=O)*; X6 = O=C(CSCC(=O)*)NCCN1CCCCC1=O; Aib = CC(C)(N)C(=O)O

What all share (format): cell-based
In assay [1] the target is T1, GLP-1R (Homo sapiens, UniProt P43220). Put plainly: HitHunter cAMP assay (GLP-1R). Particulars: cAMP; for Emax: read-out: (Emax) GLP-1R. The essentials:
(§1)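 cAMP, luminescence read: agonist 22-pt 2× dilution in DMSO, duplicate, 30 min RT on 10,000 cells/well in 1×HBSS/10 mM HEPES/625 μM IBMX/0.2% BSA; anti-cAMP reagent 1 h RT dark, then O/N RT dark before read.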

In the next assay the target is T2, GIP-R (Homo sapiens, UniProt P48546).
T2 sequence (P48546 22-466): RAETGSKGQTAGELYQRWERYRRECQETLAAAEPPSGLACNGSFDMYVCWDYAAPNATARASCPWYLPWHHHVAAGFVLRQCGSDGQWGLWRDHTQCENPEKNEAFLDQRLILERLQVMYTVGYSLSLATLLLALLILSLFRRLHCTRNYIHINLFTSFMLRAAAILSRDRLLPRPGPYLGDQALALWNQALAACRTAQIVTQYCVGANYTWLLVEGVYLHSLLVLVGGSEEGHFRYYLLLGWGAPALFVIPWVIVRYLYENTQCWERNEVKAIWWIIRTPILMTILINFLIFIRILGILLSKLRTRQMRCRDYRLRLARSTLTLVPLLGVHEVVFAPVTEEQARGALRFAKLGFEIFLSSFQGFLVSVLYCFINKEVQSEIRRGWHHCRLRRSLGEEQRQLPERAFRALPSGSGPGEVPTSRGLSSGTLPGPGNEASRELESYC
Put plainly: HitHunter cAMP assay (GIP-R). Particulars: cAMP; for Emax: read-out: (Emax) GIP-R. The essentials: as §1
A general note: cAMP levels reflect the balance of adenylyl cyclase and phosphodiesterase activity.

The target in assay [2] is T1, GLP-1R. Put plainly: PathHunter β-arrestin assay. The essentials:
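Luminescence read-out of β-arrestin recruitment (enzyme-fragment complementation detection, 3 h at room temperature in the dark) after 90 min agonist stimulation at 37 °C. Agonists tested as 22-point 2× serial dilutions in duplicate, in medium containing 0.2% BSA.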

Setting [3] is: Table 3A, read-out: EC50 GLP-1R/nM.
The mark [4] stands for this setting: Table 3A, read-out: EC50 GIP-R/nM.
Where [5] appears, read: PathHunter β-arrestin assay, read-out: β-arrestin activity EC50.

T1 sequence (P43220 24-463): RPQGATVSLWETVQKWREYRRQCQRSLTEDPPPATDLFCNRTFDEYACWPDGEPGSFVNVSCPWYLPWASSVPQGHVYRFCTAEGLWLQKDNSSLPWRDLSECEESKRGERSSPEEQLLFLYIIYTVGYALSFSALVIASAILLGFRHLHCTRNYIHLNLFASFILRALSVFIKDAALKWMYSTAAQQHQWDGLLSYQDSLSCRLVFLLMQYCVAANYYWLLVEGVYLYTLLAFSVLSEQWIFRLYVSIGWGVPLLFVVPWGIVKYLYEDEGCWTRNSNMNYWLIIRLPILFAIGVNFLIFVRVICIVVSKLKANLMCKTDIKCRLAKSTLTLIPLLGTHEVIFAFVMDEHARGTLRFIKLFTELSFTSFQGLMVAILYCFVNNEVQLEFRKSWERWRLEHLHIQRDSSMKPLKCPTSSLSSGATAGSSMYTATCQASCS

The Emax is the size of the effect at its maximum, as opposed to the concentration needed. On to `CCCCCCCCCCCCCCCC(=O)N[C@@H](CCC(=O)NCCCC[C@H](NC(=O)[C@H](CO)NC(=O)[C@@H]1CCCN1C(=O)[C@@H]1CCCN1C(=O)[C@@H]1CCCN1C(=O)[C@H](C)NC(=O)CNC(=O)[C@H](CO)NC(=O)[C@H](CO)NC(=O)[C@@H]1CCCN1C(=O)CNC(=O)CNC(=O)[C@H](C)NC(=O)[C@H](CC(C)C)NC(=O)[C@H](CC(C)C)NC(=O)[C@H](Cc1c[nH]c2ccccc12)NC(=O)[C@H](CC(N)=O)NC(=O)[C@@H](NC(=O)[C@H](Cc1ccccc1)NC(=O)[C@H](CCC(=O)O)NC(=O)C(C)(C)NC(=O)[C@H](C)NC(=O)[C@H](C)NC(=O)[C@H](CCC(N)=O)NC(=O)[C@H](CCCCN)NC(=O)[C@H](CC(=O)O)NC(=O)[C@H](CC(C)C)NC(=O)[C@H](Cc1ccc(O)cc1)NC(=O)[C@@H](NC(=O)[C@H](CO)NC(=O)[C@H](Cc1ccc(O)cc1)NC(=O)[C@H](CC(=O)O)NC(=O)[C@H](CO)NC(=O)[C@@H](NC(=O)[C@H](Cc1ccccc1)NC(=O)[C@@H](NC(=O)CNC(=O)[C@H](CCC(=O)O)NC(=O)CSCC(=O)NCCn1[nH]c(=O)ccc1=O)[C@@H](C)O)[C@@H](C)O)[C@@H](C)CC)C(C)C)C(N)=O)C(=O)O` [Compound 241], for which the EC50 at GLP-1R [1] (EC50 GLP-1R/nM, Table 3A) was 1 to 10 nM; at GIP-R (EC50 GIP-R/nM, Table 3A), 10 to 100 nM; on GLP-1R [2] it was above 1000 nM. Moreover, the Emax on GLP-1R [1] (Table 3A) was determined as 100%; at GIP-R (Table 3A) it was 46%.
Take `CC[C@H](C)[C@H](NC(=O)[C@H](CO)NC(=O)[C@H](Cc1ccc(O)cc1)NC(=O)[C@H](CC(=O)O)NC(=O)[C@H](CO)NC(=O)[C@@H](NC(=O)[C@H](Cc1ccccc1)NC(=O)[C@@H](NC(=O)CNC(=O)[C@H](CCC(=O)O)NC(=O)CSCC(=O)NCCN1C(=O)c2ccncc2C1=O)[C@@H](C)O)[C@@H](C)O)C(=O)N[C@@H](Cc1ccc(O)cc1)C(=O)N[C@@H](CC(C)C)C(=O)N[C@@H](CC(=O)O)C(=O)N[C@@H](CCCCN)C(=O)N[C@@H](CCC(N)=O)C(=O)N[C@@H](C)C(=O)N[C@@H](C)C(=O)NC(C)(C)C(=O)N[C@@H](CCC(=O)O)C(=O)N[C@@H](Cc1ccccc1)C(=O)N[C@H](C(=O)N[C@@H](CC(N)=O)C(=O)N[C@@H](Cc1c[nH]c2ccccc12)C(=O)N[C@@H](CC(C)C)C(=O)N[C@@H](CC(C)C)C(=O)N[C@@H](C)C(=O)NCC(=O)NCC(=O)N1CCC[C@H]1C(=O)N[C@@H](CO)C(=O)N[C@@H](CO)C(=O)NCC(=O)N[C@@H](C)C(=O)N1CCC[C@H]1C(=O)N1CCC[C@H]1C(=O)N1CCC[C@H]1C(=O)N[C@@H](CO)C(=O)N[C@@H](CCCCN)C(N)=O)C(C)C` [Compound 157]: the Emax at GLP-1R [1] (Table 3) fell in the range of 93 to 95%; at GLP-1R [1] (Table 3A), 93 to 95%; on GIP-R (Table 3) it was 103 to 105%; at GIP-R (Table 3A), 103 to 105%. Moreover, the EC50 on GLP-1R [1] (read-out: EC50 GLP-1R/nM, Table 3) was 1 to 100 nM; on GLP-1R [1] (read-out: EC50 GLP-1R/nM, Table 3A), 1 to 100 nM; on GIP-R (read-out: EC50 GIP-R/nM, Table 3) it was 0.1 to 10 nM; on GIP-R (read-out: EC50 GIP-R/nM, Table 3A), 0.1 to 10 nM; on GLP-1R [2], above 1000 nM.
As to `CCCCCCCCCCCCCCCC(=O)N[C@@H](CCC(=O)NCCCC[C@H](NC(=O)[C@H](CO)NC(=O)[C@@H]1CCCN1C(=O)[C@@H]1CCCN1C(=O)[C@@H]1CCCN1C(=O)[C@H](C)NC(=O)CNC(=O)[C@H](CO)NC(=O)[C@H](CO)NC(=O)[C@@H]1CCCN1C(=O)CNC(=O)CNC(=O)[C@H](C)NC(=O)[C@H](CC(C)C)NC(=O)[C@H](CC(C)C)NC(=O)[C@H](Cc1c[nH]c2ccccc12)NC(=O)[C@H](CC(N)=O)NC(=O)[C@@H](NC(=O)[C@H](Cc1ccccc1)NC(=O)[C@H](CCC(=O)O)NC(=O)C(C)(C)NC(=O)[C@H](C)NC(=O)[C@H](C)NC(=O)[C@H](CCC(N)=O)NC(=O)[C@H](CCCCN)NC(=O)[C@H](CC(=O)O)NC(=O)[C@H](CC(C)C)NC(=O)[C@H](Cc1ccc(O)cc1)NC(=O)[C@@H](NC(=O)[C@H](CO)NC(=O)[C@H](Cc1ccc(O)cc1)NC(=O)[C@H](CC(=O)O)NC(=O)[C@H](CO)NC(=O)[C@@H](NC(=O)[C@H](Cc1ccccc1)NC(=O)[C@@H](NC(=O)CNC(=O)[C@H](CCC(=O)O)NC(=O)CSCC(=O)NCCN1CCOC1=O)[C@@H](C)O)[C@@H](C)O)[C@@H](C)CC)C(C)C)C(N)=O)C(=O)O` [Compound 39], the maximal response (Emax) on GLP-1R [1] (Table 3) lay in the range of 102 to 104%; on GLP-1R [1] (Table 3A) it was 102 to 104%; at GIP-R (Table 3) it was 40 to 60%; at GIP-R (Table 3A), 40 to 60%. For the same compound, the EC50 on GLP-1R [1] (Table 3, read-out: EC50 GLP-1R/nM) was below 1 nM; at GLP-1R [1] (setting [3]), below 1 nM; at GIP-R (Table 3, read-out: EC50 GIP-R/nM) it was 0.1 to 10 nM; at GIP-R (setting [4]), 0.1 to 10 nM; on GLP-1R [2] (setting [5]), above 1000 nM.
Turning to `CCCCCCCCCCCCCCCC(=O)N[C@@H](CCC(=O)NCCCC[C@H](NC(=O)[C@H](CO)NC(=O)[C@@H]1CCCN1C(=O)[C@@H]1CCCN1C(=O)[C@@H]1CCCN1C(=O)[C@H](C)NC(=O)CNC(=O)[C@H](CO)NC(=O)[C@H](CO)NC(=O)[C@@H]1CCCN1C(=O)CNC(=O)CNC(=O)[C@H](C)NC(=O)[C@H](CC(C)C)NC(=O)[C@H](CC(C)C)NC(=O)[C@H](Cc1c[nH]c2ccccc12)NC(=O)[C@H](CC(N)=O)NC(=O)[C@@H](NC(=O)[C@H](Cc1ccccc1)NC(=O)[C@H](CCC(=O)O)NC(=O)C(C)(C)NC(=O)[C@H](C)NC(=O)[C@H](C)NC(=O)[C@H](CCC(N)=O)NC(=O)[C@H](CCCCN)NC(=O)[C@H](CC(=O)O)NC(=O)[C@H](CC(C)C)NC(=O)[C@H](Cc1ccc(O)cc1)NC(=O)[C@@H](NC(=O)[C@H](CO)NC(=O)[C@H](Cc1ccc(O)cc1)NC(=O)[C@H](CC(=O)O)NC(=O)[C@H](CO)NC(=O)[C@@H](NC(=O)[C@H](Cc1ccccc1)NC(=O)[C@@H](NC(=O)CNC(=O)[C@H](CC(=O)O)NC(=O)CSCC(=O)NCCN1CCCCC1=O)[C@@H](C)O)[C@@H](C)O)[C@@H](C)CC)C(C)C)C(N)=O)C(=O)O` [Compound 217] (X6-DGTFTSDYSIYLDKQAA[Aib]EFVNWLLAGGPSSGAPPPSK([γGlu-Palmitoyl])-NH2), the Emax on GLP-1R [1] (Table 3A) is 97%; at GIP-R (Table 3A), 58%. Further, the values for the EC50 on GLP-1R [1] (setting [3]), on GIP-R (setting [4]) and at GLP-1R [2] (setting [5]) were below 0.1 nM, 1 to 10 nM and above 1000 nM, respectively.
`CCCCCCCCCCCCCCCC(=O)N[C@@H](CCC(=O)NCCCC[C@H](NC(=O)[C@H](CO)NC(=O)[C@@H]1CCCN1C(=O)[C@@H]1CCCN1C(=O)[C@@H]1CCCN1C(=O)[C@H](C)NC(=O)CNC(=O)[C@H](CO)NC(=O)[C@H](CO)NC(=O)[C@@H]1CCCN1C(=O)CNC(=O)CNC(=O)[C@H](C)NC(=O)[C@H](CC(C)C)NC(=O)[C@H](CC(C)C)NC(=O)[C@H](Cc1c[nH]c2ccccc12)NC(=O)[C@H](CC(N)=O)NC(=O)[C@@H](NC(=O)[C@H](Cc1ccccc1)NC(=O)[C@H](CCC(=O)O)NC(=O)C(C)(C)NC(=O)[C@H](C)NC(=O)[C@H](C)NC(=O)[C@H](CCC(N)=O)NC(=O)[C@H](CCCCN)NC(=O)[C@H](CC(=O)O)NC(=O)[C@H](CC(C)C)NC(=O)[C@H](Cc1ccc(O)cc1)NC(=O)[C@@H](NC(=O)[C@H](CO)NC(=O)[C@H](Cc1ccc(O)cc1)NC(=O)[C@H](CC(=O)O)NC(=O)[C@H](CO)NC(=O)[C@@H](NC(=O)[C@H](Cc1ccccc1)NC(=O)[C@@H](NC(=O)CNC(=O)[C@H](CCC(=O)O)NC(=O)CSCC(=O)NCC(=O)N1CCCCC1)[C@@H](C)O)[C@@H](C)O)[C@@H](C)CC)C(C)C)C(N)=O)C(=O)O` [Compound 226]: the maximal response (Emax) on GLP-1R [1] (Table 3A) worked out at 89%; on GIP-R (Table 3A), 17%. Also, the EC50 on GLP-1R [1] (setting [3]) is 1 to 10 nM; at GIP-R (setting [4]) it was 100 to 1000 nM; on GLP-1R [2] (setting [5]), above 1000 nM.
